Measured values reported in patent publication US20260240878A1, “PTP1B/TC-PTP DUAL INHIBITORS AND PROTEIN DEGRADERS” (Purdue Research Foundation, priority 2023, published 2026).
*1 amine or outer side, *2 acyl side, *3 side chain or, on linkers, in order; H or OH if unused. Where a SMILES comes first, the peptide text is derived from it. [ ]: non-standard residue; d: D form. The star is where a group is joined. NHCH2(1,3-C6H4)CH2CO = O=C(Cc1cccc(CN[*:1])c1)[*:2]; F2Pmp = N[C@@H](Cc1ccc(C(F)(F)P(=O)(O)O)cc1)C(=O)O; Phenylacetyl(4-OH,3-OMe) = COc1cc(CC(=O)*)ccc1O; Benzoyl(3-Br,4-Me) = Cc1ccc(C(=O)*)cc1Br; X1 = Cc1ncsc1-c1ccc([C@H](C)N*)cc1; Hyp = O=C(O)[C@@H]1C[C@@H](O)CN1; Tle = CC(C)(C)[C@H](N)C(=O)O

How the values were obtained:
TC-PTP [1] = target: T1, TC-PTP (Homo sapiens, UniProt P17706); test: PTP activity assay with pNPP substrate (IC50, Ki, mode of inhibition); type: biochemical; details: pNPP 2 mM, pH 7.0, 25° C.; read-out: IC50, nM TC-PTP
T1 sequence (P17706 1-415): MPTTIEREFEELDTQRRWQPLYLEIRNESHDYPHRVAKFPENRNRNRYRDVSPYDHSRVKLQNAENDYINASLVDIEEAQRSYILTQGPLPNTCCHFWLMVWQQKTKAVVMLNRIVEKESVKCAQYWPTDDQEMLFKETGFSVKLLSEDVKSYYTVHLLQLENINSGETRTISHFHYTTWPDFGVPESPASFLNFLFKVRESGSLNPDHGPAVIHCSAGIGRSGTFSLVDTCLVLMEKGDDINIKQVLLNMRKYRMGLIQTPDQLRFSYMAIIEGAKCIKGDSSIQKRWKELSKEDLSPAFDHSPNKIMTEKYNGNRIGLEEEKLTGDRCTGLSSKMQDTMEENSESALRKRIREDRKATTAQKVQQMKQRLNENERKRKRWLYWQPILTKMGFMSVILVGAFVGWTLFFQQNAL
How it was run: (§1)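 Hydrolysis of pNPP measured spectrophotometrically in pH 7.0 DMG buffer (EDTA, NaCl, DTT, BSA) at 25 °C, 0.4 nM enzyme. IC50 at 2 mM pNPP (Km) over an inhibitor titration; mode of inhibition and Ki from rates across varied pNPP and inhibitor levels, fitted to enzyme kinetic models.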

PTP1B = target: T2, PTP1B (Homo sapiens, UniProt P18031); test: as above; type: biochemical; details: pNPP 2 mM, pH 7.0, 25° C.; read-out: IC50, nM PTP1B
T2 sequence (P18031 1-435): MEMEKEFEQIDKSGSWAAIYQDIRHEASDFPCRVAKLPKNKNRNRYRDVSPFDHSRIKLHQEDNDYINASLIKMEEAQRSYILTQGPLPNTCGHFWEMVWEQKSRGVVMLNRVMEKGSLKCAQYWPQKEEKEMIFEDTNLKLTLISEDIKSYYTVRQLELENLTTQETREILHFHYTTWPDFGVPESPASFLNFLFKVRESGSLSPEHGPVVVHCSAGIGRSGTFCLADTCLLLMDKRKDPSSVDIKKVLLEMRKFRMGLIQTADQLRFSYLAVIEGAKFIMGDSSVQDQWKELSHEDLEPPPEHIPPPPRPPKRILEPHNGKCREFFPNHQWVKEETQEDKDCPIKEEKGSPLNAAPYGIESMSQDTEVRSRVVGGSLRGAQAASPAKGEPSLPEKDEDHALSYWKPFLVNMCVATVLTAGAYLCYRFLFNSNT
How it was run: as §1

MC38 syngeneic tumor = MC38 syngeneic tumor study; type: in vivo, mouse
Experimental: Quantification was performed based on six representative images from six sections.
For MC38 syngeneic tumor study, 12 weeks C57BL6 female mice were injected subcutaneously with 10^6 MC38 cells for tumor growth. When tumors reached an average volume of 200 mm^3, mice were tumor size-matched and randomly assigned to different experimental groups for experiments. Mice were injected intraperitoneally with saline or 25 or 50 mg/kg compound 47 daily. Tumor sizes and animal weights were measured twice per week (FIGS. 5B-5C). Tumor volume (mm^3)=(length×width^2)/2. At the end of the experiments, mice were euthanized, and tumors were collected for analysis.

[2] = Pharmacokinetic study in mice (i.p., different formulas); type: in vivo, mouse; details: PBS buffer compared to saline
Experimental: Plasma concentrations of compound 47 were measured by LCMS after i.p. injection with different formulas at the indicated time.
For the PK study, C57BL6 female mice (25-30 g body weight) were injected intraperitoneally with 25 or 50 mg/kg compound 47 dissolved in 0.4 ml saline. Blood samples were collected through the tail vein at indicated time points after injection. Isoflurane was used as an anesthetic. All blood samples were centrifuged at 1,500 g for 5 minutes, and plasma was separated and stored at −80° C. until analysis by a validated method based on reversed-phase liquid chromatography coupled to mass-spectrometric detection (LC/MS) using a reported procedure (Journal of Clinical Investigation, 2018, 128, 816-825), which is hereby specifically incorporated by reference for its teachings regarding same (FIG. 5A).
Saline was replaced by PBS buffer in the treatment of compound 47 in mice to improve PK properties (FIG. 10). Both Cmax and area under the curve (AUC) were increased compared to the above method with saline.

TC-PTP [3] = target: T1, TC-PTP; test: Degradation assay in HEK293 cells (immunoblotting); type: cell-based; set-up: Degradation assay was conducted in HEK293 cells with 1 μM degrader and 24 hours incubation; endogenous in cells; host or cells: HEK293; details: 16 hours, dose response
MC38 cells = test: MHC-I expression in MC38 cells by flow cytometry; type: cell-based; details: 500 nM 16 hours, then mouse IFN-γ 48 hours
Experimental: Mouse MHC-I complex was stained with mouse H2K(b)/H2D(b) antibody and measured by flow cytometry.
After incubation, MC38 cells were trypsinized and washed in PBS+2% FBS, stained with Alexa Fluor® 647 anti-mouse H-2Kb/H-2Db Antibody against mouse MHC-I complex and then analyzed on a BD Fortessa LSR flow cytometry cell analyzer.

COc1cc(CC(=O)N[C@@H](Cc2ccccc2)C(=O)N[C@@H](Cc2ccc(C(F)(F)P(=O)(O)O)cc2)C(=O)N[C@@H](CCCCNC(=O)c2ccc(C)c(Br)c2)C(=O)NCc2cccc(CC(=O)N[C@H](C(=O)N3C[C@H](O)C[C@H]3C(=O)N[C@@H](C)c3ccc(-c4scnc4C)cc3)C(C)(C)C)c2)ccc1O [Compound 47, ((4-((S)-3-(((S)-6-(3-bromo-4-methylbenzamido)-1-((3-(2-(((S)-1-((2S,4R)-4-hydroxy-2-(((S)-1-(4-(4-methylthiazol-5-yl)phenyl)ethyl)carbamoyl)pyrrolidin-1-yl)-3,3-dimethyl-1-oxobutan-2-yl)amino)-2-oxoethyl)benzyl)amino)-1-oxohexan-2-yl)amino)-2-((S)-2-(2-(4-hydroxy-3-methoxyphenyl)acetamido)-3-phenylpropanamido)-3-oxopropyl)phenyl)difluoromethyl)phosphonic Acid] ({Phenylacetyl(4-OH,3-OMe)}-F[F2Pmp]K(Benzoyl(3-Br,4-Me))[NHCH2(1,3-C6H4)CH2CO][Tle][Hyp]-X1)
IC50 (TC-PTP [1]): 30.1 ± 2.3 nM
IC50 (PTP1B): 24.2 ± 1.7 nM
CD8 T cell infiltration of tumor (CD8α IHC) (MC38 syngeneic tumor; 25 mg/kg): high level of CD8-T cell infiltration
MC38 tumor growth (MC38 syngeneic tumor; 25 and 50 mg/kg i.p. daily, ten days): significantly inhibits MC38 tumor growth
PTP1B and TC-PTP degradation in vivo (MC38 tumor) (MC38 syngeneic tumor; 25 or 50 mg/kg): induces PTP1B and TC-PTP degradation in vivo
Cmax [2]: increased
area under the curve (AUC) [2]: increased
TC-PTP degradation (TC-PTP [3]): dose-dependently induced degradation of TC-PTP
MHC-I expression (MC38 cells): elevated expression of MHC-I
